# Results: patent US20090012018A1, “Inhibition of pancretic cancer cell growth” (priority 2004, published 2009)
# “Also recorded” adds a separate entry of the source.
# Assays:
# [1] = tested on: pancreatic adenocarcinoma cell lines; assay: Growth, BrdU incorporation and apoptosis of pancreatic cancer cell lines (results stated for the lines together); type: cell-based, human; conditions: for pancreatic cancer cell growth or survival: drug treatment vs untreated control cells, NS-398 up to 25 μM, sodium salicylate up to 100 μM, sulindac sulfone up to 300 μM, FIG. 3B, 5B
# Description: (§1) The small chemical inhibitors were used at the following final concentrations: up to 250 μM for sulindac (Sigma), up to 300 μM for sulindac sulfone (Calbiochem or ICN), NS-398 up to 25 μM (Calbiochem), sodium salicylate up to 100 μM (Calbiochem). […] To test for drug sensitivity, the cells were plated in control medium or in medium containing the drug of interest for 2 to 5 days. The culture media was changed every 48 hrs. The images showing cell morphology were taken with a Nikon inverted microscope.
# (§2) Cells were pulsed with 10 μM BrdU for two hours and then harvested and fixed. BrdU incorporation was detected with a fluorescein isothiocyanate conjugated anti-BrdU antibody (BD Biosciences) and total DNA was stained with 7-AAD (BD Biosciences). FACS analysis was performed according to the BD Biosciences BrdU flow kit manual. Cells in S-phase were defined as the BrdU-positive cell population with a DNA content between 2N and 4N. According to the manual, apoptotic cells were defined as a subpopulation of G0/G1 cells with DNA content lower than the diploid amount (<2N).
# (§3) The cell lines were plated the day prior to transfection at a density of 8×10^4 cells/well in a 24-well plate. The luciferase reporter constructs used included: Top-Flash and Fop-Flash containing multimerized Tcf-Lef binding sites or nonfunctional sites, respectively; TK-Luc (Promega); and GliBS containing 8×Gli binding sites upstream of the TK minimal promoter (Sasaki et al., Development, 124:1313-1322, 1997). In different experiments, the reporter constructs were co-transfected with an expression vector containing a dominant-negative form of Lef1 or the endogenous Wnt inhibitor Icat. The dominant negative Lef1 (gift from S. Pleasure) was generated by cloning the 63 amino acid N-terminal deleted form of Lef1 into the pEF5 plasmid. This construct also contains an IRES-EGFP cassette. The cDNA coding for the Icat protein was cloned into pIRES2-EGFP (BD Biosciences Clontech). Transfections were performed using the Effectene transfection reagent […] according to the user's manual. A Renilla luciferase plasmid (Promega) was included to control for transfection efficiency. Transfected cells were cultured in medium containing serum. […] Cells were harvested 24 hrs after transfection, and luciferase activity was assayed using the Dual Luciferase kit (Promega), according to the user's manual.
# Small interfering RNA (siRNA) oligonucleotides against β-catenin containing two thymidine residues (dTdT) at the 3′ end of the sequence (5′-[…] […] T-3′ set forth as SEQ ID NO:57) were used for treatment of cancer cells as described (Verma et al., Clin Cancer Res, 9:1291-1300, 2003). The GLI1 siRNA (sense 5′-[…] […]-3′ set forth as SEQ ID NO:58) was also used as described (Sanchez et al., Proc Natl Acad Sci USA 101:12561-12566, 2004). Small interfering RNA against GLI2 was ordered against the target sequence 5-[…] […] A-3′, set forth as SEQ ID NO:59). […] Cells were transfected with oligofectamine (Invitrogen) according to the user's manual, with a final siRNA concentration of 100 or 300 nM. Transfected cells were incubated for 48 hrs before harvesting.
# Tcf4 = assay: Immunofluorescence of Tcf expression in pancreatic cancer cells; type: cell-based, human; conditions: cyclopamine for 24 hrs (FIG. 4C) or sulindac-treated
# [2] = tested on: Hedgehog signaling (GliBS-luc reporter); assay: GliBS-luciferase reporter assay; type: cell-based, human; conditions: BxPC3 cells; cyclopamine 10 μM
# Description: The cell lines were plated the day prior to transfection at a density of 8×10^4 cells/well in a 24-well plate. The luciferase reporter constructs used included: Top-Flash and Fop-Flash containing multimerized Tcf-Lef binding sites or nonfunctional sites, respectively; TK-Luc (Promega); and GliBS containing 8×Gli binding sites upstream of the TK minimal promoter (Sasaki et al., Development, 124:1313-1322, 1997). In different experiments, the reporter constructs were co-transfected with an expression vector containing a dominant-negative form of Lef1 or the endogenous Wnt inhibitor Icat. The dominant negative Lef1 (gift from S. Pleasure) was generated by cloning the 63 amino acid N-terminal deleted form of Lef1 into the pEF5 plasmid. This construct also contains an IRES-EGFP cassette. The cDNA coding for the Icat protein was cloned into pIRES2-EGFP (BD Biosciences Clontech). Transfections were performed using the Effectene transfection reagent […] according to the user's manual. A Renilla luciferase plasmid (Promega) was included to control for transfection efficiency. Transfected cells were cultured in medium containing serum. […] Cells were harvested 24 hrs after transfection, and luciferase activity was assayed using the Dual Luciferase kit (Promega), according to the user's manual. […]
# [3] = tested on: Wnt signaling (Top-Flash reporter); assay: Fop/Top-Flash luciferase reporter assay; type: cell-based, human; conditions: for Top-Flash reporter activity (Wnt signaling): CFPAC-1, BxPC3, L3.6sl, Panc4.21, 24 hrs after transfection, sulindac 250 μM, sulindac sulfone 150 μM, cyclopamine 10 μM, or co-transfection
# Description: as §3
# For each Fop-luciferase or Top-luciferase experiment, a renilla luciferase construct was included. For each experimental condition (drug treatment, co-transfection or siRNA), triplicate Top- and Fop-luciferase samples were analyzed. To equilibrate the total vector-DNA (or siRNA) amount in all samples, equivalent amounts of an empty expression vector or unrelated siRNAs were transfected into control samples. The following equations were used to obtain the normalized luciferase values and the relative (fold) activation. The firefly luciferase (Fop and Top) values were divided by the renilla luciferase values to obtain the normalized luciferase values. The normalized Top values for each condition were divided by the Fop values of the same condition (e.g., untreated Top/untreated Fop; drug-treated Top/drug-treated Fop). […] To minimize the number of bars in each figure, only representative average Fop values are included in the graphs.
# Tcf1 = assay: Immunofluorescence of Tcf expression in pancreatic cancer cells; type: cell-based, human; conditions: pancreatic cancer cells (Panc4.21); cyclopamine for 24 hrs (FIG. 4C) or sulindac-treated
# Panc10.05 = assay: Sensitivity of pancreatic adenocarcinoma cells to drug treatment (cell proliferation, survival); type: cell-based, human; conditions: Panc 10.05; FIG. 6
# Description: (§4) Human pancreatic adenocarcinoma cell lines HPAC, SW1990, Mpanc-96, SU86.86, PL45, Panc10.05 Panc2.03 and Panc8.13 were obtained from ATCC; cell lines MiaPaCa2, Panc1, CFPAC-1, HPAFII, Capan-2, AsPC1, Hs766T and BxPC3 were a gift from Schering Plough; cell lines COLO357, L3.3, L3.6 pl and L3.6 sl were a gift from I. Fidler; cell lines Panc3.27, Panc4.21, Panc5.04, Panc2.13, Panc1.28 and Panc6.03 were a gift from E. Jaffee. BxPC3 and the Panc cell lines were grown in RPMI medium (Gibco) supplemented with 10% FBS, L-glutamine and penicillin/streptomycin; medium for the Panc cells was also supplemented with insulin-transferrin-selenium (Gibco). The CFPAC-1, Panc1, AsPC1, Hs766T, L3.6sl and L3.6pl were grown in DMEM without phenol red (CellGro), supplemented with 10% FBS. Derivation and culture of PDC cells was as described (Schreiber et al., Gastroenterology, 127:250-260, 2004).
# as §1, §2
# Panc1.28 = assay: as above; type: cell-based, human; conditions: FIG. 6
# Description: as §4, §1, §2
# L3.6sl tumors = assay: Subcutaneous tumor treatment in nude mice; type: in vivo, CD-1 nude mice
# Description: (§5) A total of 0.1 ml Hanks' balanced salt solution and matrigel (1:1) containing 2×10^6 cells was injected subcutaneously into CD-1 nude mice (Charles River Laboratories). Tumors were grown for 4 days to a minimum volume of 125 mm^3. Treatment was initiated simultaneously for all subjects. Mice were injected with vector alone (peanut oil: PBS 7:3 v/v) or with a sulindac solution (3 mg/mouse/day) daily for 5 days. Sulindac sulfone was administered orally (1.5 mg/mouse/day). At the end of the treatment period, tumors were excised from mice, weighed and photographed.
# Individual or combined treatment was initiated after tumors were palpable.
# BxPC3 = assay: Sensitivity of pancreatic adenocarcinoma cells to drug treatment (cell proliferation, apoptosis); type: cell-based, human; conditions: vs untreated controls, FIG. 3B
# Description: as §4, §1, §2
# L3.6sl = assay: as above; type: cell-based, human; conditions: vs untreated controls, FIG. 3B
# Description: as §4, §1, §2
# Panc4.21 = assay: as above; type: cell-based, human; conditions: vs untreated controls, FIG. 3B
# Description: as §4, §1, §2
# CFPAC-1 = assay: as above; type: cell-based, human; conditions: CFPAC-1 (CFPAC); vs untreated controls; FIG. 3B, 5
# Description: The culture media was changed every 48 hrs.
# as §2
# Solubility = type: physicochemical; conditions: required oral application
# CFPAC-1 tumors = assay: Subcutaneous tumor treatment in nude mice; type: in vivo, CD-1 nude mice; conditions: treated for five days vs controls, sulindac 3 mg/mouse/day injected, sulindac sulfone 1.5 mg/mouse/day orally
# Description: as §5
# BxPC3 tumors = assay: Subcutaneous tumor treatment in nude mice; type: in vivo, CD-1 nude mice
# Description: as §5
# [4] = sulindac sulfone orally 1.5 mg/mouse/day, five days
# [5] = treated for five days vs untreated controls, sulindac 3 mg/mouse/day injected, sulindac sulfone 1.5 mg/mouse/day orally
compound,measurement,setting,value
CS(=O)(=O)Nc1ccc([N+](=O)[O-])cc1OC1CCCCC1 [NS-398],pancreatic cancer cell growth or survival,[1],Neither NS-398 (blocks COX-2 activity) nor salicylate (blocks COX-2 transcription) showed any measurable effect
same,pancreatic cancer cell growth or survival,[1]; listed as NS398,comparable growth to untreated control cells
"CC1=C2C[C@H]3[C@@H](CC=C4C[C@@H](O)CC[C@@]43C)[C@@H]2CC[C@]12O[C@@H]1C[C@H](C)CN[C@H]1[C@H]2C [cyclopamine, 11-deoxojervine]",Tcf4 expression,Tcf4,efficiently abolished
same,Tcf4 expression,Tcf4; listed as Cyclopamine,inhibits Tcf4 and Tcf1 expression
same,reduction of Hedgehog signaling,[2],17%
same,reduction of Wnt signaling,"[3]; BxPC3 cells, cyclopamine 10 μM",~23%
same,Tcf1 expression,Tcf1,inhibits Tcf4 and Tcf1 expression; also recorded: reduce expression
same,sensitivity / survival (phase contrast images),Panc10.05,not sensitive
same,sensitivity / survival (phase contrast images),Panc1.28,not sensitive
O=C([O-])c1ccccc1O.[Na+] [sodium salicylate],pancreatic cancer cell growth or survival,[1],comparable growth to untreated control cells
same,pancreatic cancer cell growth or survival,[1]; listed as salicylate,Neither NS-398 (blocks COX-2 activity) nor salicylate (blocks COX-2 transcription) showed any measurable effect
CC1=C(CC(=O)O)c2cc(F)ccc2/C1=C\c1ccc(S(C)(=O)=O)cc1 [sulindac sulfone],reduction of tumor mass,L3.6sl tumors; [4],50%
same,tumor growth,L3.6sl tumors; [5],reduced
same,cell proliferation as measured by BrdU incorporation,"[1]; 75 μM sulindac sulfone, 5 μM cyclopamine or both, FIG. 4H",inhibits cell proliferation
same,pancreatic cancer cell growth or survival,[1],blocked Wnt signaling and cell survival
same,cell growth,BxPC3,strongly inhibits growth
same,cell growth,L3.6sl,strongly inhibits growth
same,cell growth,Panc4.21,strongly inhibits growth
same,"cell growth (proliferation, apoptosis)",CFPAC-1,only mildly affected; also recorded: diminishes growth
same,Top-Flash reporter activity (Wnt signaling),[3],inhibit Wnt activity; also recorded: generally more effective than sulindac in blocking Wnt signaling
same,Top-Flash reporter activity (Wnt signaling),[3]; listed as Sulindac sulfone,blocked Wnt signaling
same,solubility,Solubility,limited solubility
same,sensitivity / survival (phase contrast images),Panc10.05,not sensitive
same,sensitivity / survival (phase contrast images),Panc1.28,not sensitive
same,"tumor growth (volume, size)",CFPAC-1 tumors,largely unaffected
same,reduction of tumor mass,BxPC3 tumors; [4],60%
same,tumor growth,BxPC3 tumors; [5],reduced
ICAT: endogenous Wnt inhibitor; cDNA cloned into pIRES2-EGFP expression vector and transfected,cell proliferation (BrdU incorporation) after transfection,"[1]; four pancreatic cancer cell lines, 48 hours after transfection, siRNA 100 nM or 300 nM, FIG. 2C, 2D",strongly inhibits growth; also recorded: significantly reduced
same,Top-Flash reporter activity (Wnt signaling),[3],reduction of Top-Flash activity
